# Assays:
# in vitro = type: cell-based; details: African green monkey, CC50
# Description: (§1) In parallel, the toxicity of the compounds was assessed on the same plates. Once the read-out for the eGFP signal was done, 10 μL of resazurin, a cell viability stain, was added to all wells of the 384-well plates. The resazurin assay is based on the reduction of the blue resazurin by NADH, produced by the cells, into the highly fluorescent product, resorufin. The formation of pink fluorescent resorufin is directly related to the number of viable cells in the well. The plates were incubated for an additional 5 hours in a fully humidified incubator (37° C., 5% CO2). Next, the plates were measured on an Infinite reader (Tecan) using an excitation wavelength of 530 nm. The half maximal cytotoxic concentration (CC50) was also determined, defined as the concentration required to reduce the resazurin conversion by 50% compared to that of the cell control wells. Finally, the selectivity index (SI) was determined for the compounds, which was calculated as followed: SI=CC50/EC50.
# DENV-2 16681 strain = assay: DENV-2 antiviral assay (eGFP-labeled virus in Vero cells); type: cell-based, Dengue virus; details: DENV-2 16681 eGFP, MOI 0.5, 3 days
# Description: The antiviral activity of all the compounds of the invention was tested against DENV-2 16681 strain which was labeled with enhanced green fluorescent protein (eGPF; Table 1). The culture medium consists of minimal essential medium supplemented with 2% of heat-inactivated fetal calf serum, 0.04% gentamycin (50 mg/mL) and 2 mM of L-glutamine. Vero cells, obtained from ECACC, were suspended in culture medium and 25 μL was added to 384-well plates (2500 cells/well), which already contain the antiviral compounds. Typically, these plates contain a 4-fold serial dilution of 9 dilution steps of the test compound at 200 times the final concentration in 100% DMSO (200 nL). In addition, each compound concentration is tested in quadruplicate (final concentration range: 25 μM-0.00038 μM). Finally, each plate contains wells which are assigned as virus controls (containing cells and virus in the absence of compound), cell controls (containing cells in the absence of virus and compound) and medium controls (containing medium in the absence of cells, virus and compounds). To the wells assigned as medium control, 25 μL of culture medium was added instead of Vero cells. Once the cells were added to the plates, the plates were incubated for 30 minutes at room temperature to allow the cells to distribute evenly within the wells. Next, the plates were incubated in a fully humidified incubator (37° C., 5% CO2) until the next day. Then, DENV-2 strain 16681, labeled with eGFP, was added at a multiplicity of infection (MOI) of 0.5. Therefore, 15 μL of virus suspension was added to all the wells containing test compound and to the wells assigned as virus control. In parallel, 15 μL of culture medium was added to the medium and cell controls. Next, the plates were incubated for 3 days in a fully humidified incubator (37° C., 5% CO2). At the day of the read out, the eGFP fluorescence was measured using an automated fluorescence microscope at 488 nm (blue laser). Using an in-house LIMS system, inhibition dose response curves for each compound were calculated and the half maximal effective concentration (EC50) was determined. Therefore, the percent inhibition (I) for every test concentration is calculated using the following formula: I=100*(ST−SCC)/(SVC−SCC); ST, SCC and SVC are the amount of eGFP signal in the test compound, cell control and virus control wells, respectively. The EC50 represents the concentration of a compound at which the virus replication is inhibited with 50%, as measured by a 50% reduction of the eGFP fluorescent intensity compared to the virus control. The EC50 is calculated using linear interpolation.
# Vero cells = assay: in vitro; type: cell-based; details: African green monkey
# Description: as §1
smiles,measurement,setting,value
"COc1cc(NC(C(=O)c2c[nH]c3cc(F)ccc23)c2ccc(F)cc2OC)cc(S(C)(=O)=O)c1 (racemic) [Compound 1, 1-(6-fluoro-1H-indol-3-yl)-2-(4-fluoro-2-methoxyphenyl)-2-((3-methoxy-5-(methylsulfonyl)phenyl)amino)ethanone]",CC50,in vitro,9.9 µM
same,EC50,"DENV-2 16681 strain; Dengue virus, DENV2, Vero, 72 h",0.002 µM
"COc1cc(NC(C(=O)c2c[nH]c3cc(F)ccc23)c2ccc(F)cc2OC)cc(S(C)(=O)=O)c1 (single isomer, unassigned) [Enantiomer 1B, 1-(6-fluoro-1H-indol-3-yl)-2-(4-fluoro-2-methoxyphenyl)-2-((3-methoxy-5-(methylsulfonyl)phenyl)amino)ethanone]",CC50,Vero cells,12 µM
same,EC50,DENV-2 16681 strain; listed as 1B,0.05 µM
"COc1cc(NC(C(=O)c2c[nH]c3c(C)c(F)ccc23)c2ccc(F)cc2OC)cc(S(C)(=O)=O)c1 (single isomer, unassigned) [Enantiomer 2B, 2-(4-fluoro-2-methoxyphenyl)-1-(6-fluoro-7-methyl-1H-indol-3-yl)-2-((3-methoxy-5-(methylsulfonyl)phenyl)amino)ethanone]",CC50,Vero cells,8 µM
same,EC50,DENV-2 16681 strain; listed as 2B,0.055 µM
"COc1cc(NC(C(=O)c2c[nH]c3c(C)c(Cl)ccc23)c2ccc(F)cc2OC)cc(S(C)(=O)=O)c1 (single isomer, unassigned) [Enantiomer 3B, 1-(6-chloro-7-methyl-1H-indol-3-yl)-2-(4-fluoro-2-methoxyphenyl)-2-((3-methoxy-5-(methylsulfonyl)phenyl)amino)ethanone]",CC50,Vero cells,11 µM
same,EC50,DENV-2 16681 strain; listed as 3B,0.032 µM
"COc1cc(NC(C(=O)c2c[nH]c3cc(Cl)ccc23)c2ccc(F)cc2OC)cc(S(C)(=O)=O)c1 (single isomer, unassigned) [Enantiomer 4B, 1-(6-chloro-1H-indol-3-yl)-2-(4-fluoro-2-methoxyphenyl)-2-((3-methoxy-5-(methylsulfonyl)phenyl)amino)ethanone]",CC50,Vero cells,16 µM
same,EC50,DENV-2 16681 strain; listed as 4B,0.018 µM
"COc1cc(NC(C(=O)c2c[nH]c3c(F)cc(C)cc23)c2ccc(F)cc2OC)cc(S(C)(=O)=O)c1 (single isomer, unassigned) [Enantiomer 6B, 2-(4-fluoro-2-methoxyphenyl)-1-(7-fluoro-5-methyl-1H-indol-3-yl)-2-((3-methoxy-5-(methylsulfonyl)phenyl)amino)ethanone]",CC50,Vero cells,12 µM
same,EC50,DENV-2 16681 strain; listed as 6B,0.2 µM
"COc1cc(NC(C(=O)c2c[nH]c3cc(F)c(F)cc23)c2ccc(F)cc2OC)cc(S(C)(=O)=O)c1 (single isomer, unassigned) [Enantiomer 7B, 1-(5,6-difluoro-1H-indol-3-yl)-2-(4-fluoro-2-methoxyphenyl)-2-((3-methoxy-5-(methylsulfonyl)phenyl)amino)ethanone]",CC50,Vero cells,9.6 µM
same,EC50,DENV-2 16681 strain; listed as 7B,0.043 µM
"COc1cc(NC(C(=O)c2c[nH]c3c(C)cc(F)cc23)c2ccc(F)cc2OC)cc(S(C)(=O)=O)c1 (single isomer, unassigned) [Enantiomer 8B, 2-(4-fluoro-2-methoxyphenyl)-1-(5-fluoro-7-methyl-1H-indol-3-yl)-2-((3-methoxy-5-(methylsulfonyl)phenyl)amino)ethanone]",CC50,Vero cells,11 µM
same,EC50,DENV-2 16681 strain; listed as 8B,0.24 µM
"COc1cc(NC(C(=O)c2c[nH]c3cc(C)c(F)cc23)c2ccc(F)cc2OC)cc(S(C)(=O)=O)c1 (single isomer, unassigned) [Enantiomer 9B, 2-(4-fluoro-2-methoxyphenyl)-1-(5-fluoro-6-methyl-1H-indol-3-yl)-2-((3-methoxy-5-(methylsulfonyl)phenyl)amino)ethanone]",CC50,Vero cells,21 µM
same,EC50,DENV-2 16681 strain; listed as 9B,0.098 µM
"COc1cc(NC(C(=O)c2c[nH]c3cc(OC)c(C)cc23)c2ccc(F)cc2OC)cc(S(C)(=O)=O)c1 (single isomer, unassigned) [Enantiomer 10A, 2-(4-fluoro-2-methoxyphenyl)-2-((3-methoxy-5-(methylsulfonyl)phenyl)amino)-1-(6-methoxy-5-methyl-1H-indol-3-yl)ethanone]",CC50,Vero cells,18 µM
same,EC50,DENV-2 16681 strain; listed as 10A,0.054 µM
"COc1cc(NC(C(=O)c2c[nH]c3cc(OC)c(F)cc23)c2ccc(F)cc2OC)cc(S(C)(=O)=O)c1 (single isomer, unassigned) [Enantiomer 11B, 2-(4-fluoro-2-methoxyphenyl)-1-(5-fluoro-6-methoxy-1H-indol-3-yl)-2-((3-methoxy-5-(methylsulfonyl)phenyl)amino)ethanone]",CC50,Vero cells,> 25 µM
same,EC50,DENV-2 16681 strain; listed as 11B,0.055 µM
"COc1cc(NC(C(=O)c2c[nH]c3c(Cl)c(OC)ccc23)c2ccc(F)cc2OC)cc(S(C)(=O)=O)c1 (single isomer, unassigned) [Enantiomer 12B, 1-(7-chloro-6-methoxy-1H-indol-3-yl)-2-(4-fluoro-2-methoxyphenyl)-2-((3-methoxy-5-(methylsulfonyl)phenyl)amino)ethanone]",CC50,Vero cells,> 25 µM
same,EC50,DENV-2 16681 strain; listed as 12B,0.021 µM
"COc1cc(NC(C(=O)c2c[nH]c3cc(F)c(C)cc23)c2ccc(F)cc2OC)cc(S(C)(=O)=O)c1 (single isomer, unassigned) [Enantiomer 14B, 2-(4-fluoro-2-methoxyphenyl)-1-(6-fluoro-5-methyl-1H-indol-3-yl)-2-((3-methoxy-5-(methylsulfonyl)phenyl)amino)ethanone]",CC50,Vero cells,11 µM
same,EC50,DENV-2 16681 strain; listed as 14B,0.041 µM
"COc1cc(NC(C(=O)c2c[nH]c3ccc(C)cc23)c2ccc(F)cc2OC)cc(S(C)(=O)=O)c1 (single isomer, unassigned) [Enantiomer 15B, 2-(4-fluoro-2-methoxyphenyl)-2-((3-methoxy-5-(methylsulfonyl)phenyl)amino)-1-(5-methyl-1H-indol-3-yl)ethanone]",CC50,Vero cells,17 µM
same,EC50,DENV-2 16681 strain; listed as 15B,0.073 µM
"COc1cc(NC(C(=O)c2c[nH]c3cc(OC)c(Cl)cc23)c2ccc(F)cc2OC)cc(S(C)(=O)=O)c1 (single isomer, unassigned) [Enantiomer 16B, 1-(5-chloro-6-methoxy-1H-indol-3-yl)-2-(4-fluoro-2-methoxyphenyl)-2-((3-methoxy-5-(methylsulfonyl)phenyl)amino)ethanone]",CC50,Vero cells,22 µM
same,EC50,DENV-2 16681 strain; listed as 16B,0.013 µM
"COc1cc(NC(C(=O)c2c[nH]c3ccc(C(F)(F)F)cc23)c2ccc(F)cc2OC)cc(S(C)(=O)=O)c1 (single isomer, unassigned) [Enantiomer 17A, 2-(4-fluoro-2-methoxyphenyl)-2-((3-methoxy-5-(methylsulfonyl)phenyl)amino)-1-(5-(trifluoromethyl)-1H-indol-3-yl)ethanone]",CC50,Vero cells,14 µM
same,EC50,DENV-2 16681 strain; listed as 17A,0.038 µM
"COc1cc(NC(C(=O)c2c[nH]c3ccc(OC(F)(F)F)cc23)c2ccc(F)cc2OC)cc(S(C)(=O)=O)c1 (single isomer, unassigned) [Enantiomer 18B, 2-(4-fluoro-2-methoxyphenyl)-2-((3-methoxy-5-(methylsulfonyl)phenyl)amino)-1-(5-(trifluoromethoxy)-1H-indol-3-yl)ethanone]",CC50,Vero cells,10 µM
same,EC50,DENV-2 16681 strain; listed as 18B,0.0092 µM

# Source: patent US10029984B2, “Mono- or di-substituted indole derivatives as dengue viral replication inhibitors” (Janssen Pharmaceuticals, Inc., priority 2015, dated 2018)
